The nature of assay [1]: Inhibition of Kv channel in depolarized mouse N2A cells assessed as inhibition of +30 mV-triggered steady state potassium current flow.
For assay [2], the system named is N2a. Kind of assay: Steady state inactivation of Kv potassium channel in 10 second long prepulse-activated mouse N2A cells followed by further +70 mV pulse stimulation assessed as reduction in half maximal activation potential at 30 uM (RVb=20.9 +/- 2.1 mV). In kind it is cell-based.
Assay [3] deals with N2a. Kind of assay: Inactivation of Kv channel in +30 mV-stimulated mouse N2A cells assessed as decay time constant of inactivated K+ current at 30 uM applied extracellularly (Rvb=1970 +/- 101 ms). In kind it is cell-based.
The species named for assay [4] is Mus musculus. Kind of assay: Inhibition of Kv potassium channel in mouse N2A assessed as blockade of channel pore at 10 uM in presence of 140 mM intracellular potassium ion. The class given is cell-based.
Assay [5] relates to N2a. Kind of assay: Inhibition of Kv potassium channel in +10 to +70 mV-stimulated mouse N2A cells at 30 uM. In kind it is cell-based.
Assay [6] has as its target Potassium voltage-gated channel subfamily A member 2 (Homo sapiens) (UniProt P16389). Briefly: Inhibition of Kv1.2 channel expressed in -70 mV-activated HEK293 cells followed by further 10 mV pulse stimulation assessed as slope factor (RVb= 16.3 +/- 1.8 no_unit). The class given is cell-based.
Assay [7] relates to N2a. Briefly: Steady state inactivation of Kv potassium channel in -70 mV-activated mouse N2A cells followed by further 10 mV pulse stimulation assessed as change in slope factor potential at 30 uM (RVb= 16.1 +/- 1.1 no_unit). The class given is cell-based.
Assay [8] has as its system N2a. Briefly: Inhibition of Kv potassium channel in +10 to +70 mV-stimulated mouse N2A cells at 10 uM. The class given is cell-based.
The subject of assay [9] is N2a. Briefly: Steady state inactivation of Kv potassium channel in -70 mV-activated mouse N2A cells followed by further 10 mV pulse stimulation assessed as reduction in half maximal activation potential at 30 uM (RVb= 10.8 +/- 2.4 mV). The class given is cell-based.
The subject of assay [10] is N2a. Briefly: Inactivation of Kv channel in +30 mV-stimulated mouse N2A cells assessed as decay time constant of inactivated K+ current at 30 uM applied extracellularly measured after compound washout (Rvb=1970 +/- 101 ms). The class given is cell-based.
In assay [11] the test system is N2a. Briefly: Inactivation of Kv channel in +30 mV-activated mouse N2A cells followed by further +30 mV pulse stimulation assessed as peak K+ current recovery at 30 uM. The class given is cell-based.
Assay [12] relates to N2a. Kind of assay: Inhibition of Kv potassium channel-induced current in mouse N2A cells assessed as left shift of activation curve. The class given is cell-based.
The test system of assay [13] is N2a. Kind of assay: Steady state inactivation of Kv potassium channel in -70 mV-activated mouse N2A cells followed by further 10 mV pulse stimulation assessed as reduction in half maximal activation potential at 30 uM applied intracellularly (RVb= 10.8 +/- 2.4 mV). In kind it is cell-based.
Assay [14] has as its system N2a. Kind of assay: Inactivation of open state of Kv channels in depolarized mouse N2A cells assessed as reduction of +30 mV-stimulated peak current magnitude at 30 uM treated 4 mins before voltage stimulation followed by restimulation with +30 mV pulse every 20 seconds measured after 6 mins relative to control. Also noted: scale not given: the % may be the effect or the level left. The class given is cell-based.

Assay [15] has as its system N2a. Kind of assay: Steady state inactivation of Kv potassium channel in 10 sec long prepulse-activated mouse N2A cells followed by further +70 mV pulse stimulation assessed as change in slope factor potential at 30 uM (Rvb=6.4 +/- 1.1 no_unit). In kind it is cell-based.
Assay [16] deals with N2a. Kind of assay: Inactivation of open state of Kv channel in depolarized mouse N2A cells assessed as change in +30 mV-stimulated peak current at 30 uM treated 4 mins before voltage stimulation relative to control. In kind it is cell-based.
For assay [17], the species on record is Mus musculus. Kind of assay: Inhibition of Kv potassium channel in mouse N2A assessed as blockade of channel pore at 30 uM in presence of 70 mM intracellular potassium ion. In kind it is cell-based.
Assay [18] concerns N2a. Kind of assay: Inactivation of Kv channel in +30 mV-stimulated mouse N2A cells assessed as decay time constant of inactivated K+ current at 30 uM via bath application measured after 3 mins (Rvb=1567 +/- 104 ms). The class given is cell-based.
The subject of assay [19] is N2a. Briefly: Steady state inactivation of Kv potassium channel in -70 mV-activated mouse N2A cells followed by further 10 mV pulse stimulation assessed as activation slope factor at 30 uM applied intracellularly. In kind it is cell-based.
Assay [20] deals with N2a. Briefly: Inactivation of Kv channel in +30 mV-stimulated mouse N2A cells assessed as […] at 30 uM applied extracellularly measured after compound washout (Rvb=1970 +/- 101 ms). In kind it is cell-based.
Assay [21] has as its system N2a. Kind of assay: Inactivation of open state of Kv channel in +30 mV-stimulated mouse N2A cells assessed as peak K+ current recovery at 30 uM treated 4 mins before voltage stimulation followed by restimulation with +30 mV pulse every 20 seconds measured after compound washout. The class given is cell-based.

The values that follow come from ChEMBL document CHEMBL1152333 (J Nat Prod, 2009).

The source made the active and inactive calls. No cut-off for these calls is given here.

Sequence of Potassium voltage-gated channel subfamily A member 2 (Homo sapiens) (P16389 whole entry): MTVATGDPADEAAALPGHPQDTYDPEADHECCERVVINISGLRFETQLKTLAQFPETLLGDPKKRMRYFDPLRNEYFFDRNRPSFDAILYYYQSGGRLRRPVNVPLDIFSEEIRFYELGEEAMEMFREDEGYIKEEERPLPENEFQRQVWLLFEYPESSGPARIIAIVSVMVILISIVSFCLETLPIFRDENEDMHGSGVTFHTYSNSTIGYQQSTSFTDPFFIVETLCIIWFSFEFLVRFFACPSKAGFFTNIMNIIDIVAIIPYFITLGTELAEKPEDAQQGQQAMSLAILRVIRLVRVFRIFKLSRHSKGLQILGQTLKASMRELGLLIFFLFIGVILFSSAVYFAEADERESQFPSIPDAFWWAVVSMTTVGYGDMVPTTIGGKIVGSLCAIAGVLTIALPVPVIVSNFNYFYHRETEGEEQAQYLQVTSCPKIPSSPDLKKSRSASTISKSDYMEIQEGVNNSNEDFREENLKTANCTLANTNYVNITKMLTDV

The IC50 is the midpoint of a concentration-inhibition curve. For `CC[C@H]1CN2CC[C@]3(C(=O)Nc4ccccc43)[C@@H]2C[C@@H]1/C(=C\OC)C(=O)OC` [RHYNCHOPHYLLINE], the IC50 in assay [1] turned out to be 7.9 µM. Further, the Activity with N2a [2] was -34.6 mV; with N2a [3] it was 60.8 ms; in [6], 19.4; in the assay with N2a [7], 23.2; with N2a [9] it was -6.5 mV; in the assay on N2a [10] it was 1900 ms. Besides, the Activity in the assay with N2a [13] came to 7.7 mV; with N2a [14], 72.5%; with N2a [15], 3.7; with N2a [16], 115%; with N2a [18] it was 35 ms; in the assay with N2a [19] it was 11.8. Moreover, the results for the Activity in the assay on N2a [20] and in the assay on N2a [21] were 93.3 ms and 98%, respectively. Moreover, the result in the assay filed under Mus musculus [4], with N2a [11] and in the assay listed under Mus musculus [17] was inactive. The result in the assay on N2a [5], with N2a [8] and with N2a [12] was Active.
